Measured values: patent US20240067645A1, “HETEROCYCLIC COMPOUND AS DIACYLGLYCEROL KINASE INHIBITOR AND USE THEREOF” (LG CHEM, LTD., priority 2020, published 2024)
pIC50: −log10 of the molar value.

molecular target: DGKα (Homo sapiens (Human), UniProt P23743); experiment: Measurement of inhibitory effect against DGKα enzyme (ADP-Glo); type: biochemical; conditions: not given
Method: Experimental Example: Measurement of Inhibitory Effect Against DGKα Enzyme
First, 3×OAG (3 mM)/ATP (0.45 mM) substrate solution was prepared from 1× substrate assay buffer (40 mM MOPS (pH 7.2), 20 mM MgCl2, 1 mM DTT, 0.4 mM CaCl2), 3 mM sodium deoxycholate, 100 mM NaCl, 0.1 mg/mL BSA, 0.12% NP-40), and vortexed thoroughly for 3 minutes to induce detergent-lipid micelle formation. Then, 3×DGKα (7.5 nM) enzyme solution was prepared from 2× enzyme assay buffer (80 mM MOPS (pH 7.2), 2 mM DTT, 200 mM NaCl, 0.2 mg/mL BSA) and vortexed for a short time.
After preparing the above two solutions, a half-area opaque 96-well assay plate was prepared, and 10 μL of 3× diluted compound solution (30 μM to 0 μM) was transferred to each well. Next, 10 μL of 3×DGK enzyme solution was transferred to the same plate, mixed by pipetting, and then 10 μL of 3×OAG/ATP substrate solution was added to the assay plate and mixed well. The plate was incubated at room temperature for 20 minutes for the enzyme reaction. Next, 15 μL of ADP-Glo reagent was added to each well and mixed by pipetting, followed by incubating the plate at room temperature for 40 minutes to deplete the remaining ATPs. After this step, 30 μL of kinase detection reagent was added and mixed, and the plate was incubated at room temperature for an additional 20 minutes and luminescence was measured by Envision to calculate the IC50 value of each compound.
The measurement results are represented in Table 1 (+: IC50>5 μM, ++: 5 μM>IC50>300 nM, +++: IC50<300 nM).

Sequence of DGKα (P23743 whole entry, species assumed): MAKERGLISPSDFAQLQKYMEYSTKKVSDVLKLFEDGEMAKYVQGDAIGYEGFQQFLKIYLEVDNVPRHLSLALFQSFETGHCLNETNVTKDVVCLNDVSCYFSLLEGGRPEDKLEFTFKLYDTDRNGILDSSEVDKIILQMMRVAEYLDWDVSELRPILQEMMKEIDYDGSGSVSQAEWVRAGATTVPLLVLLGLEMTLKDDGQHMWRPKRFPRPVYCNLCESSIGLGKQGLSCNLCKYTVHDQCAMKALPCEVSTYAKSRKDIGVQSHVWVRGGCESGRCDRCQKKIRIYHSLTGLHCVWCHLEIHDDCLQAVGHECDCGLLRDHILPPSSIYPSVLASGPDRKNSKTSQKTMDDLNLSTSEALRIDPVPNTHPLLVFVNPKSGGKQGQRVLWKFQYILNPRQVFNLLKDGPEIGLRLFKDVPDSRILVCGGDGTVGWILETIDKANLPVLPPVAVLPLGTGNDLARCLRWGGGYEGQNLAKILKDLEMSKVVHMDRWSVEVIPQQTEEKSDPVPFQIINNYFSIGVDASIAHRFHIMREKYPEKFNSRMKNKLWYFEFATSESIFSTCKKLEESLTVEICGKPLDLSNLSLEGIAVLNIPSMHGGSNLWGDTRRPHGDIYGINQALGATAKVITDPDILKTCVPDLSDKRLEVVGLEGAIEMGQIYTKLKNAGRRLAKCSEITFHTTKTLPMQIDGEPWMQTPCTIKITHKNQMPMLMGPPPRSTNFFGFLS

Structure (SMILES) | pIC50
Cn1c(=O)c(=O)n([C@H]2C[C@H]3CC[C@@H](C2)N3Cc2ccc(OC(F)(F)F)cc2)c2ncc(Cl)cc21 [Example 57, 7-chloro-1-methyl-4-((1R,3r,5S)-8-(4-(trifluoromethoxy)benzyl)-8-azabicyclo[3.2.1]octan-3-yl)-1,4-dihydropyrido[2,3-b]pyrazine-2,3-dione] | 5.30 to 6.52

same assay, conditions: DGKα enzyme, ADP-Glo luminescence, OAG/ATP substrate, 20 min room temperature; read-out: IC50

Structure (SMILES) | pIC50
Cn1c(=O)c(=O)n(C2CCN(Cc3cccc4nccnc34)CC2)c2ncc(Cl)cc21 [Example 33, 7-chloro-1-methyl-4-(1-(quinoxalin-5-ylmethyl)piperidin-4-yl)-1,4-dihydropyrido[2,3-b]pyrazine-2,3-dione] | 5.30 to 6.52
Cn1cc(-c2cnc3c(c2)n(C)c(=O)c(=O)n3C2CCN(Cc3ccc(OC(F)(F)F)cc3)CC2)cn1 [Example 36, 1-methyl-7-(1-methyl-1H-pyrazol-4-yl)-4-(1-(4-(trifluoromethoxy)benzyl)piperidin-4-yl)-1,4-dihydropyrido[2,3-b]pyrazine-2,3-dione] | > 6.52
Cn1c(=O)c(=O)n(C2CCN(Cc3cccc4c3CCCC4)CC2)c2ncc(Cl)cc21 [Example 37, 7-chloro-1-methyl-4-(1-((5,6,7,8-tetrahydronaphthalen-1-yl)methyl)piperidin-4-yl)-1,4-dihydropyrido[2,3-b]pyrazine-2,3-dione] | > 6.52
Cn1c(=O)c(=O)n(C2CCN(Cc3ccc(OC(F)(F)F)cc3)CC2)c2nc(C#N)c(Br)cc21 [Example 38, 7-bromo-1-methyl-2,3-dioxo-4-(1-(4-(trifluoromethoxy)benzyl)piperidin-4-yl)-1,2,3,4-tetrahydropyrido[2,3-b]pyrazine-6-carbonitrile] | 5.30 to 6.52
Cn1c(=O)c(=O)n(C2CCN(Cc3ccc(OC(F)(F)F)cc3)CC2)c2ncc(-c3ccccc3F)cc21 [Example 39, 7-(2-fluorophenyl)-1-methyl-4-(1-(4-(trifluoromethoxy)benzyl)piperidin-4-yl)-1,4-dihydropyrido[2,3-b]pyrazine-2,3-dione] | > 6.52
Cn1c(=O)c(=O)n(C2CCN(Cc3ccc(OC(F)(F)F)cc3)CC2)c2ncc(C3CC3)cc21 [Example 40, 7-cyclopropyl-1-methyl-4-(1-(4-(trifluoromethoxy)benzyl)piperidin-4-yl)-1,4-dihydropyrido[2,3-b]pyrazine-2,3-dione] | < 5.30
Cn1c(=O)c(=O)n(C2CCN(Cc3ccc(OC(F)(F)F)cc3)CC2)c2nc(-c3ccccc3F)c(Cl)cc21 [Example 41, 7-chloro-6-(2-fluorophenyl)-1-methyl-4-(1-(4-(trifluoromethoxy)benzyl)piperidin-4-yl)-1,4-dihydropyrido[2,3-b]pyrazine-2,3-dione] | > 6.52
Cn1c(=O)c(=O)n(C2CCN(Cc3ccc(OC(F)(F)F)cc3)CC2)c2nc(C#N)c(C3CC3)cc21 [Example 44, 7-cyclopropyl-1-methyl-2,3-dioxo-4-(1-(4-(trifluoromethoxy)benzyl)piperidin-4-yl)-1,2,3,4-tetrahydropyrido[2,3-b]pyrazine-6-carbonitrile] | 5.30 to 6.52
Cn1c(=O)c(=O)n(C2CCN(C(c3cccc(Cl)c3)c3cccc(Cl)c3)CC2)c2ncc(Cl)cc21 [Example 45, 4-(1-(bis(3-chlorophenyl)methyl)piperidin-4-yl)-7-chloro-1-methyl-1,4-dihydropyrido[2,3-b]pyrazine-2,3-dione] | 5.30 to 6.52
Cn1c(=O)c(=O)n(C2CCN(Cc3ccc4c(c3)OCCO4)CC2)c2ncc(Cl)cc21 [Example 46, 7-chloro-4-(1-((2,3-dihydrobenzo[b][1,4]dioxin-6-yl)methyl)piperidin-4-yl)-1-methyl-1,4-dihydropyrido[2,3-b]pyrazine-2,3-dione] | 5.30 to 6.52
Cn1c(=O)c(=O)n(C2CCN(Cc3ccc(OC(F)(F)F)cc3)CC2)c2ncc(C#N)cc21 [Example 47, 1-methyl-2,3-dioxo-4-(1-(4-(trifluoromethoxy)benzyl)piperidin-4-yl)-1,2,3,4-tetrahydropyrido[2,3-b]pyrazine-7-carbonitrile] | 5.30 to 6.52
CC(=O)c1cnc2c(c1)n(C)c(=O)c(=O)n2C1CCN(Cc2ccc(OC(F)(F)F)cc2)CC1 [Example 48, 7-acetyl-1-methyl-4-(1-(4-(trifluoromethoxy)benzyl)piperidin-4-yl)-1,4-dihydropyrido[2,3-b]pyrazine-2,3-dione] | > 6.52
C[C@@H]1CC(n2c(=O)c(=O)n(C)c3cc(Cl)cnc32)[C@@H](C)CN1Cc1ccc(OC(F)(F)F)cc1 (stereo partly shown) [Example 49] | 5.30 to 6.52
Cc1nc2c(cc1Cl)n(C)c(=O)c(=O)n2C1CCN(Cc2ccc(OC(F)(F)F)cc2)CC1 [Example 50, 7-chloro-1,6-dimethyl-4-(1-(4-(trifluoromethoxy)benzyl)piperidin-4-yl)-1,4-dihydropyrido[2,3-b]pyrazine-2,3-dione] | > 6.52
Cc1nc2c(cc1Br)n(C)c(=O)c(=O)n2C1CCN(Cc2ccc(OC(F)(F)F)cc2)CC1 [Example 51, 7-bromo-1,6-dimethyl-4-(1-(4-(trifluoromethoxy)benzyl)piperidin-4-yl)-1,4-dihydropyrido[2,3-b]pyrazine-2,3-dione] | > 6.52
CC(C)n1cc(CN2CCC(n3c(=O)c(=O)n(C)c4cc(Cl)cnc43)CC2)cn1 [Example 52, 7-chloro-4-(1-((1-isopropyl-1H-pyrazol-4-yl)methyl)piperidin-4-yl)-1-methyl-1,4-dihydropyrido[2,3-b]pyrazine-2,3-dione] | < 5.30
CC(=O)c1ccc2c(n1)n(C1CCN(Cc3ccc(OC(F)(F)F)cc3)CC1)c(=O)c(=O)n2C [Example 53, 6-acetyl-1-methyl-4-(1-(4-(trifluoromethoxy)benzyl)piperidin-4-yl)-1,4-dihydropyrido[2,3-b]pyrazine-2,3-dione] | 5.30 to 6.52
Cn1c(=O)c(=O)n(C2CCN(Cc3ccc(OC(F)(F)F)cc3)CC2)c2nc(Cl)ccc21 [Example 54, 6-chloro-1-methyl-4-(1-(4-(trifluoromethoxy)benzyl)piperidin-4-yl)-1,4-dihydropyrido[2,3-b]pyrazine-2,3-dione] | > 6.52
COc1ccc2c(n1)n(C1CCN(Cc3ccc(OC(F)(F)F)cc3)CC1)c(=O)c(=O)n2C [Example 55, 6-methoxy-1-methyl-4-(1-(4-(trifluoromethoxy)benzyl)piperidin-4-yl)-1,4-dihydropyrido[2,3-b]pyrazine-2,3-dione] | 5.30 to 6.52
Cc1ccnc2c1n(C)c(=O)c(=O)n2C1CCN(Cc2ccc(OC(F)(F)F)cc2)CC1 [Example 56, 1,8-dimethyl-4-(1-(4-(trifluoromethoxy)benzyl)piperidin-4-yl)-1,4-dihydropyrido[2,3-b]pyrazine-2,3-dione] | < 5.30
CC(C)Oc1ccc2c(n1)n(C1CCN(Cc3ccc(OC(F)(F)F)cc3)CC1)c(=O)c(=O)n2C [Example 58, 6-isopropoxy-1-methyl-4-(1-(4-(trifluoromethoxy)benzyl)piperidin-4-yl)-1,4-dihydropyrido[2,3-b]pyrazine-2,3-dione] | < 5.30
Cn1c(=O)c(=O)n(C2CCN(Cc3ccc(OC(F)(F)F)cc3)CC2)c2ncc(F)cc21 [Example 59, 7-fluoro-1-methyl-4-(1-(4-(trifluoromethoxy)benzyl)piperidin-4-yl)-1,4-dihydropyrido[2,3-b]pyrazine-2,3-dione] | 5.30 to 6.52
COC(=O)c1cnc2c(c1)n(C)c(=O)c(=O)n2C1CCN(Cc2ccc(OC(F)(F)F)cc2)CC1 [Example 60, methyl 1-methyl-2,3-dioxo-4-(1-(4-(trifluoromethoxy)benzyl)piperidin-4-yl)-1,2,3,4-tetrahydropyrido[2,3-b]pyrazine-7-carboxylate] | > 6.52
Cc1cnc2c(c1)n(C)c(=O)c(=O)n2C1CCN(Cc2ccc(OC(F)(F)F)cc2)CC1 [Example 61, 1,7-dimethyl-4-(1-(4-(trifluoromethoxy)benzyl)piperidin-4-yl)-1,4-dihydropyrido[2,3-b]pyrazine-2,3-dione] | > 6.52
Cn1c(=O)c(=O)n(C2CCN(Cc3ccc(OC(F)(F)F)cc3)CC2)c2ncc(C(=O)O)cc21 [Example 62, 1-methyl-2,3-dioxo-4-(1-(4-(trifluoromethoxy)benzyl)piperidin-4-yl)-1,2,3,4-tetrahydropyrido[2,3-b]pyrazine-7-carboxylic acid] | 5.30 to 6.52
CN(C)CCNC(=O)c1cnc2c(c1)n(C)c(=O)c(=O)n2C1CCN(Cc2ccc(OC(F)(F)F)cc2)CC1 [Example 63, N-(2-(dimethylamino)ethyl)-1-methyl-2,3-dioxo-4-(1-(4-(trifluoromethoxy)benzyl)piperidin-4-yl)-1,2,3,4-tetrahydropyrido[2,3-b]pyrazine-7-carboxamide] | < 5.30
CN(C)C(=O)c1cnc2c(c1)n(C)c(=O)c(=O)n2C1CCN(Cc2ccc(OC(F)(F)F)cc2)CC1 [Example 64, N,N,1-trimethyl-2,3-dioxo-4-(1-(4-(trifluoromethoxy)benzyl)piperidin-4-yl)-1,2,3,4-tetrahydropyrido[2,3-b]pyrazine-7-carboxamide] | < 5.30
